This passage reports EC50 and melting point results from US7091225B2, “Substituted oxazoles and thiazoles as hPPAR alpha agonists” (SmithKline Beecham Corporation, priority 2000, dated 2006).

One data set has as its target T1, human PPAR gamma (Homo sapiens, UniProt P37231).
T1 construct: expressed in transfected cells; host or cells: CV-1 cells
T1 sequence (P37231 238-503 limits assumed): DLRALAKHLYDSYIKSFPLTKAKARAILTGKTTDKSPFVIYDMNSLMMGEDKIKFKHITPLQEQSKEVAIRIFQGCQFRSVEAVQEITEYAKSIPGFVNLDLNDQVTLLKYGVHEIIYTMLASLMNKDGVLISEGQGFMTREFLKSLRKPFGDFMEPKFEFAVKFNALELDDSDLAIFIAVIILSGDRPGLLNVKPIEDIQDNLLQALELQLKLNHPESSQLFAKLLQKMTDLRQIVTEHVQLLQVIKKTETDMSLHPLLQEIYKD
In words: Transient transfection (transactivation) assay in CV-1 cells, hPPAR gamma. It is filed as cell-based. The following applies: PPAR transactivation activity; GAL4-PPAR LBD chimera in CV-1 cells; concentration achieving 50% of maximum activity; read-out: human γEC50. The text has this:
(§1) Most preferably, the compounds of formula (I) are selective hPPARalpha agonists. As used herein, a “selective hPPAR alpha agonist” is a hPPARalpha agonist whose EC50 for PPARalpha is at least 10 fold lower than its EC50 for PPAR gamma and PPAR delta. […] Most preferred compounds are greater than 100-fold selective hPPARalpha agonists (see Table 1).
(§2) Compounds were screened for functional potency in transient transfection assays in CV-1 cells for their ability to activate the PPAR subtypes (transactivation assay). A previously established chimeric receptor system was utilized to allow comparison of the relative transcriptional activity of the receptor subtypes on the same target gene and to prevent endogenous receptor activation from complicating the interpretation of results. See, for example, Lehmann, J. M.; Moore, L. B.; Smith-Oliver, T. A.; Wilkison, W. O.; Willson, T. M.; Kliewer, S. A., An antidiabetic thiazolidinedione is a high affinity ligand for peroxisome proliferator-activated receptor γ (PPARγ), J. Biol. Chem., 1995, 270, 12953–6. The ligand binding domains for murine and human PPAR alpha, PPAR gamma, and PPAR delta were each fused to the yeast transcription factor GAL4 DNA binding domain. […]

The target in the next data set is T2, human PPAR delta (Homo sapiens, UniProt Q03181).
T2 construct: expressed in transfected cells; host or cells: CV-1 cells
T2 sequence (Q03181 211-439 limits assumed): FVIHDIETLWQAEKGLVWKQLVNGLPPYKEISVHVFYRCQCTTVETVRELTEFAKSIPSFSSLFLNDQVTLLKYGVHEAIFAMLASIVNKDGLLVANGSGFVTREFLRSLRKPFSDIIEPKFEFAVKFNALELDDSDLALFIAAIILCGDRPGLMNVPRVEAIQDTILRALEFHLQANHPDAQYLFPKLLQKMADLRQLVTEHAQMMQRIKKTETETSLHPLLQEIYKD
In words: Transient transfection (transactivation) assay in CV-1 cells, hPPAR delta. As to conditions: PPAR transactivation activity; GAL4-PPAR LBD chimera in CV-1 cells; concentration achieving 50% of maximum activity; read-out: human δEC50. It is filed as cell-based.
Excerpt: as §1, §2

The next data set addresses T3, human PPAR alpha (Homo sapiens, UniProt Q07869).
T3 construct: expressed in transfected cells; host or cells: CV-1 cells
T3 sequence (Q07869 239-466 limits assumed): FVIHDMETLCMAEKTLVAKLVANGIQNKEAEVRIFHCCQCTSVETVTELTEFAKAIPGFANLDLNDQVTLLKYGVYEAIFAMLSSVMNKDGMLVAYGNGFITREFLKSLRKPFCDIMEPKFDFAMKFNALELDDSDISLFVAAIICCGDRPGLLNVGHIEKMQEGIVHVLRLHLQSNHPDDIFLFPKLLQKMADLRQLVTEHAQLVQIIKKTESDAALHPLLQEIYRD
In words: Transient transfection (transactivation) assay in CV-1 cells, hPPAR alpha. It is filed as cell-based. The following applies: PPAR transactivation activity; GAL4-PPAR LBD chimera in CV-1 cells; concentration achieving 50% of maximum activity; read-out: human αEC50.
Excerpt: as §1, §2

With `Cc1nc(-c2ccc(C(F)(F)F)cc2)sc1COc1cccc(CSCC(=O)O)c1` [Example 4, 2-{[(3-[4-methyl-2-(4-trifluoromethylphenyl)thiazol-5-yl]methoxy)benzyl]thio}acetic acid], the EC50 on human PPAR gamma came to 3600 nM; on human PPAR delta, 1600 nM; at human PPAR alpha, 10 nM.

`Cc1nc(-c2ccc(C(F)(F)F)cc2)sc1C(C)(C)Oc1cccc(COC(C)(C)C(=O)O)c1` [Example 10, 2-methyl-2-[3-{1-methyl-1-[4-methyl-2-(4-trifluoromethylphenyl)thiazol-5-yl]ethoxy}benzyloxy]propionic acid] gave a melting point of 136 °C.

For `Cc1nc(-c2ccc(C(F)(F)F)cc2)sc1COc1cccc(COCC(=O)O)c1` [Example 6, 2-{(3-[4-methyl-2-(4-trifluoromethylphenyl)thiazol-5-yl]methoxy)benzyloxy}acetic acid], the melting point is 121 °C.

As for `Cc1nc(-c2ccc(C(F)(F)F)cc2)sc1COc1cccc(COC(C)(C)C(=O)O)c1` [Example 2, 2-methyl-2-{(3-[4-methyl-2-(4-trifluoromethylphenyl)thiazol-5-yl]methoxy)benzyloxy}propionic acid], the EC50 on human PPAR gamma was 2600 nM; on human PPAR delta, 3200 nM; at human PPAR alpha, 2 nM.

By melting point is commonly meant the temperature of the solid-liquid transition.
